Experimental data published in paper PMC8449414, “Rational design of ASCT2 inhibitors using an integrated experimental-computational approach” (Proceedings of the National Academy of Sciences of the …, 2021).

molecular target: T1, hASCT2 (Homo sapiens, UniProt Q15758); assay: Glutamine transport assay in proteoliposomes reconstituted with purified hASCT2; assay type: biochemical; conditions: in the presence of 5 µM glutamine; read-out: IC50, inhibition of glutamine uptake in proteoliposomes
T1 construct: expressed in transfected cells; host or cells: HEK293 (ATCC CRL-11268), transient transfection
T1 sequence (Q15758 1-541): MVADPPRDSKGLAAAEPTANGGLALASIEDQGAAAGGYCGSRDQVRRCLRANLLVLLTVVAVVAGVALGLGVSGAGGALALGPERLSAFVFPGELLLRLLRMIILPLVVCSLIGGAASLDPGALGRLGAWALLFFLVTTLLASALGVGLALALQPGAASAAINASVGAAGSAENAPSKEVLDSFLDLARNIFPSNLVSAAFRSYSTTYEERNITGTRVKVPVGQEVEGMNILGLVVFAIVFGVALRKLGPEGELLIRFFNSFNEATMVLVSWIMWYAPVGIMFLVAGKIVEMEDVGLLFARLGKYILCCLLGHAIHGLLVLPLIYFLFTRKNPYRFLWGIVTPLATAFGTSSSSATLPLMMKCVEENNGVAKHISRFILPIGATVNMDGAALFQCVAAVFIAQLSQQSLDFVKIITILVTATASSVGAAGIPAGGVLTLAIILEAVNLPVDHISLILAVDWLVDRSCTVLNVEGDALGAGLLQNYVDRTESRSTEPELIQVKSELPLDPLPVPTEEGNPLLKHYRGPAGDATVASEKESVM
Description: Our computational models predicted Lc-BPE as a competitive inhibitor targeting the substrate binding site. To test this prediction, we performed electrophysiological competition experiments in the presence of varying concentrations of the substrate, L-alanine. The results were consistent with a competitive inhibition mechanism (SI Appendix, Fig. S4). At low inhibitor concentrations, the alanine-induced currents were inward, as expected from transported substrates, indicative of the inability of Lc-BPE to displace alanine from the binding site. However, as inhibitor concentration increased, the currents became outwardly directed in a dose-dependent manner, which marked the displacement of alanine by the inhibitor (SI Appendix, Fig. S5). The apparent Ki increased as a function of the alanine concentration, as anticipated for a competitive mechanism (SI Appendix, Figs. S5 and S6). […] We further tested the inhibitory activity of Lc-BPE in a cell-free transport assay in proteoliposomes, where purified and reconstituted hASCT2 catalyzes the exchange of intracellular nonlabeled L-glutamine with extracellular radioactive-labeled L-glutamine. We observed a dose-dependent inhibition of glutamine transport when Lc-BPE was added externally, which confirms that this compound is an hASCT2 inhibitor with a half-maximum inhibitory concentration (IC50) value of 20 µM in the presence of 5 µM glutamine (Fig. 2D).
Dilutions to working concentrations were made using external buffer. The highest […]
cells. For rASCT2, hASCT2 and hASCT1, external buffer contained 140 mM NaCl, 2 mM MgCl2, 2 mM CaCl2, and 10 mM HEPES, pH 7.40 while internal pipette solution comprised of 130 mM NaSCN, 2 mM MgCl2, 10 mM EGTA, 10 mM HEPES and 10mM alanine, pH 7.40. […] Current s traces were recorded using an Adams and List EPC7 amplifier and digitized using a Molecular Devices Digidata A/D converter.
Data analysis was performed as described previously 46. Linear and nonlinear curve fitting of the experimental data were analyzed using MicroCal Origin software. […]

Row | IC50 [µM] | Compound
1 | 56 | N[C@@H](COC(=O)c1ccc(NC(=O)c2ccccc2)cc1)C(=O)O [ERA-21]
2 | 411 | O=C(O[C@H]1CN[C@H](C(=O)O)C1)c1ccc(C(=O)c2ccccc2)cc1 [ERA-35]

Row | Compound | IC50 [µM]
3 | O=C(O[C@@H]1CN[C@H](C(=O)O)C1)c1ccc(-c2ccccc2)cc1 [Lc-BPE, L-cis hydroxyproline biphenyl ester] | 20
